# Source: the supplement of paper PMC8671470
# System: MOLM-13
# Assay: cell viability (% survival relative to DMSO control, bortezomib = 0%); higher = less cytotoxic
# Settings: 1000 nM; 72 h
# Summary of the method: (§1)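 In 384-well plates pre-printed with compounds at 1, 10, 100, 1000 or 10000 nM, duplicate wells received cells from 10 AML and 5 CML lines at densities within the linear growth range. The plates stayed at 37 °C with 5% CO2 for 72 h before CellTiter-Glo luminescence was recorded. Each entry is averaged percent survival. Scaling placed vehicle at 100% and a 10 µM positive control at 0%.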
row,SMILES,cell viability
1,CC(C)(C#N)c1cc(Cn2cncn2)cc(C(C)(C)C#N)c1 [Anastrozole],104%
2,O=C(O)C1=CC(=C(c2ccc(O)c(C(=O)O)c2)c2ccc(O)c(C(=O)O)c2)C=CC1=O [Aurintricarboxylic acid],82.8%

# Same assay, conditions: 10000 nM; 72 h
row,SMILES,cell viability
1,CN(C)C(=O)[C@H](O)[C@H](Cc1ccccc1)NC(=O)c1cc2cc(Cl)ccc2[nH]1,88.1%
2,COc1ccc(CNC(=O)Nc2ncc([N+](=O)[O-])s2)cc1,105%
3,CCOP(=O)(OCC)C(=Cc1cc(C(C)(C)C)c(O)c(C(C)(C)C)c1)P(=O)(OCC)OCC,86.5%
4,COc1ccc(-c2ccccc2)cc1NS(=O)(=O)c1cc(Cl)cc(Cl)c1O,111%
5,C[C@H](NC(=O)c1sccc1OCc1ccc(Cl)cc1)c1ccccc1,102%
6,"O=C(O)c1cc(Cl)cc(Cl)c1O [3,5-Dichlorosalicylic Acid]",91.7%
7,O=C(O)C(=O)CBr [3-bromopyruvic acid],122%
8,NS(=O)(=O)c1ccc([N+](=O)[O-])cc1 [4-Nitrobenzenesulfonamide],107%
9,Cc1ccccc1C(C(=O)NC1CCCCC1)N(C(=O)Cn1ccnc1C)c1cccc(F)c1 (configuration not stated) [AGI-5198],118%
10,CC(C)(C#N)c1cc(Cn2cncn2)cc(C(C)(C)C#N)c1 [Anastrozole],103%
11,O=C(O)C1=CC(=C(c2ccc(O)c(C(=O)O)c2)c2ccc(O)c(C(=O)O)c2)C=CC1=O [Aurintricarboxylic acid],30.9%

# System: NOMO-1
# Assay: as above
# Settings: 1 nM; 72 h
# Summary of the method: as §1
row,SMILES,cell viability
1,CN(C)C(=O)[C@H](O)[C@H](Cc1ccccc1)NC(=O)c1cc2cc(Cl)ccc2[nH]1,101%
2,COc1ccc(CNC(=O)Nc2ncc([N+](=O)[O-])s2)cc1,108%
3,CCOP(=O)(OCC)C(=Cc1cc(C(C)(C)C)c(O)c(C(C)(C)C)c1)P(=O)(OCC)OCC,97%
4,COc1ccc(-c2ccccc2)cc1NS(=O)(=O)c1cc(Cl)cc(Cl)c1O,102%
5,C[C@H](NC(=O)c1sccc1OCc1ccc(Cl)cc1)c1ccccc1,96.6%
6,"O=C(O)c1cc(Cl)cc(Cl)c1O [3,5-Dichlorosalicylic Acid]",93.9%
7,O=C(O)C(=O)CBr [3-bromopyruvic acid],93.3%
8,NS(=O)(=O)c1ccc([N+](=O)[O-])cc1 [4-Nitrobenzenesulfonamide],101%
9,Cc1ccccc1C(C(=O)NC1CCCCC1)N(C(=O)Cn1ccnc1C)c1cccc(F)c1 (configuration not stated) [AGI-5198],96%
10,CC(C)(C#N)c1cc(Cn2cncn2)cc(C(C)(C)C#N)c1 [Anastrozole],90.6%
11,O=C(O)C1=CC(=C(c2ccc(O)c(C(=O)O)c2)c2ccc(O)c(C(=O)O)c2)C=CC1=O [Aurintricarboxylic acid],95.8%

# Same assay, conditions: 10 nM; 72 h
row,SMILES,cell viability
1,CN(C)C(=O)[C@H](O)[C@H](Cc1ccccc1)NC(=O)c1cc2cc(Cl)ccc2[nH]1,102%
2,COc1ccc(CNC(=O)Nc2ncc([N+](=O)[O-])s2)cc1,97.1%
3,CCOP(=O)(OCC)C(=Cc1cc(C(C)(C)C)c(O)c(C(C)(C)C)c1)P(=O)(OCC)OCC,99.1%
4,COc1ccc(-c2ccccc2)cc1NS(=O)(=O)c1cc(Cl)cc(Cl)c1O,96%
5,C[C@H](NC(=O)c1sccc1OCc1ccc(Cl)cc1)c1ccccc1,108%
6,"O=C(O)c1cc(Cl)cc(Cl)c1O [3,5-Dichlorosalicylic Acid]",94.9%
7,O=C(O)C(=O)CBr [3-bromopyruvic acid],95%
8,NS(=O)(=O)c1ccc([N+](=O)[O-])cc1 [4-Nitrobenzenesulfonamide],105%
9,Cc1ccccc1C(C(=O)NC1CCCCC1)N(C(=O)Cn1ccnc1C)c1cccc(F)c1 (configuration not stated) [AGI-5198],103%
10,CC(C)(C#N)c1cc(Cn2cncn2)cc(C(C)(C)C#N)c1 [Anastrozole],103%
11,O=C(O)C1=CC(=C(c2ccc(O)c(C(=O)O)c2)c2ccc(O)c(C(=O)O)c2)C=CC1=O [Aurintricarboxylic acid],108%

# Same assay, conditions: 100 nM; 72 h
row,SMILES,cell viability
1,CN(C)C(=O)[C@H](O)[C@H](Cc1ccccc1)NC(=O)c1cc2cc(Cl)ccc2[nH]1,106%
2,COc1ccc(CNC(=O)Nc2ncc([N+](=O)[O-])s2)cc1,97.9%
3,CCOP(=O)(OCC)C(=Cc1cc(C(C)(C)C)c(O)c(C(C)(C)C)c1)P(=O)(OCC)OCC,118%
4,COc1ccc(-c2ccccc2)cc1NS(=O)(=O)c1cc(Cl)cc(Cl)c1O,107%
5,C[C@H](NC(=O)c1sccc1OCc1ccc(Cl)cc1)c1ccccc1,99.3%
6,"O=C(O)c1cc(Cl)cc(Cl)c1O [3,5-Dichlorosalicylic Acid]",88.1%
7,O=C(O)C(=O)CBr [3-bromopyruvic acid],101%
8,NS(=O)(=O)c1ccc([N+](=O)[O-])cc1 [4-Nitrobenzenesulfonamide],98.5%
9,Cc1ccccc1C(C(=O)NC1CCCCC1)N(C(=O)Cn1ccnc1C)c1cccc(F)c1 (configuration not stated) [AGI-5198],107%
10,CC(C)(C#N)c1cc(Cn2cncn2)cc(C(C)(C)C#N)c1 [Anastrozole],96.4%
11,O=C(O)C1=CC(=C(c2ccc(O)c(C(=O)O)c2)c2ccc(O)c(C(=O)O)c2)C=CC1=O [Aurintricarboxylic acid],109%

# Same assay, conditions: 1000 nM; 72 h
row,SMILES,cell viability
1,CN(C)C(=O)[C@H](O)[C@H](Cc1ccccc1)NC(=O)c1cc2cc(Cl)ccc2[nH]1,106%
2,COc1ccc(CNC(=O)Nc2ncc([N+](=O)[O-])s2)cc1,106%
3,CCOP(=O)(OCC)C(=Cc1cc(C(C)(C)C)c(O)c(C(C)(C)C)c1)P(=O)(OCC)OCC,91.4%
4,COc1ccc(-c2ccccc2)cc1NS(=O)(=O)c1cc(Cl)cc(Cl)c1O,92.7%
5,C[C@H](NC(=O)c1sccc1OCc1ccc(Cl)cc1)c1ccccc1,102%
6,"O=C(O)c1cc(Cl)cc(Cl)c1O [3,5-Dichlorosalicylic Acid]",105%
7,O=C(O)C(=O)CBr [3-bromopyruvic acid],98.1%
8,NS(=O)(=O)c1ccc([N+](=O)[O-])cc1 [4-Nitrobenzenesulfonamide],103%
9,Cc1ccccc1C(C(=O)NC1CCCCC1)N(C(=O)Cn1ccnc1C)c1cccc(F)c1 (configuration not stated) [AGI-5198],100%
10,CC(C)(C#N)c1cc(Cn2cncn2)cc(C(C)(C)C#N)c1 [Anastrozole],99.6%
11,O=C(O)C1=CC(=C(c2ccc(O)c(C(=O)O)c2)c2ccc(O)c(C(=O)O)c2)C=CC1=O [Aurintricarboxylic acid],90.1%

# Same assay, conditions: 10000 nM; 72 h
row,SMILES,cell viability
1,CN(C)C(=O)[C@H](O)[C@H](Cc1ccccc1)NC(=O)c1cc2cc(Cl)ccc2[nH]1,95.4%
2,COc1ccc(CNC(=O)Nc2ncc([N+](=O)[O-])s2)cc1,99.5%
3,CCOP(=O)(OCC)C(=Cc1cc(C(C)(C)C)c(O)c(C(C)(C)C)c1)P(=O)(OCC)OCC,93.4%
4,COc1ccc(-c2ccccc2)cc1NS(=O)(=O)c1cc(Cl)cc(Cl)c1O,99%
5,C[C@H](NC(=O)c1sccc1OCc1ccc(Cl)cc1)c1ccccc1,101%
